The test has as its system HCT-116 RAD21-mAC cells. Put plainly: PRO-Seq nascent transcription after cohesin loss. The test is classed as cell-based, human. The source says:
Finally, Applicants sought to investigate the role of cohesin in regulating gene expression. Cohesin has been proposed to facilitate interactions between enhancers and promoters (Kagey et al., 2010; Merkenschlager and Nora, 2016). Loop domains are thought to regulate this process by preventing enhancers from forming ectopic interactions with targets that lie in a different loop domain (Lupiáñez et al., 2015; Flavahan et al., 2016). Applicants therefore characterized the effects of cohesin loss on nascent transcription by performing precision nuclear run-on sequencing (PRO-Seq) in treated and untreated HCT116 cells (Engreitz et al., 2016; Jonkers and Lis, 2015) (FIG. 7A). Applicants chose an early timepoint—6 hours after auxin treatment—with the aim of examining direct consequences, rather than indirect effects due to changes in cell state.
To measure changes in transcription resulting from cohesin loss, Applicants performed precision run-on sequencing (PRO-Seq) (Jonkers and Lis, 2015), a variant of global run-on sequencing (GRO-Seq), using a single biotinylated nucleotide (biotin-11-CTP) as previously described (Engreitz et al., 2016). Applicants made one modifications to the protocol: at the end of each biotin enrichment, Applicants eluted biotinylated RNAs from the streptavidin-coated magnetic beads by heating beads in 25 μl of 20 mM Tris-HCl pH 7.5, 10 mM EDTA, 2% N-lauroylsarcosine at 95° C. for 5 minutes, followed by a magnetic-bead nucleic acid purification with 20 μl of MyONE SILANE beads. During the nuclei preparation step, Applicants processed pairs of RAD21-mAC cells with and without auxin treatment in parallel. In addition, Applicants performed PRO-Seq on HCT-116 CMV-OsTIR1 cells, the parental cell line of RAD21-mAC containing the OsTIR1 gene integrated at the AAVS1 locus and no mAID tags integrated on any protein. By performing PRO-Seq on CMV-OsTIR1 cells with and without auxin treatment, Applicants could control for transcriptional effects of the auxin treatment itself on HCT-116 cells, as well as any consequences of tagging the RAD21 protein.
For analysis of PRO-Seq data, Applicants aligned 30-bp paired-end reads to the hg19 reference (bowtie2 v2.1.0, (Langmead and Salzberg, 2012)), removed duplicate reads (Picard picard.sourceforge.net), and discarded reads with MAPQ <30. Applicants counted reads overlapping RefSeq genes (collapsed by gene symbol to the longest isoform)—this quantification procedure includes signal both at the paused position (near the TSS) as well as in the gene body. Applicants identified genes showing significant differences in transcription with DESeq2 (Love et al., 2014), excluding genes with zero coverage in all samples and calling significance at Benjamini-Hochberg corrected p-value <0.05.
To determine whether there were global changes in the total amount of transcription (up or down) that would affect the normalization and analysis of these experiments, Applicants included a spike-in control in three of the four PRO-Seq replicates for each of untreated and treated RAD21-mAC and CMV-OsTIR1 cells. Specifically, Applicants added ˜500,000 Drosophila S2 cells at the beginning of the protocol. Upon sequencing of these libraries, Applicants counted the number of spike-in reads by aligning to the Drosophila genome (dme13) with bowtie2 v2.1.0.
Assessment of changes in transcription after cohesin loss. […]

For `O=C(O)Cc1c[nH]c2ccccc12` [auxin, indole-3-acetic acid], where the note is “upon auxin treatment”, the AKAP12 expression down-regulation was 3.3 fold, the IER5L expression down-regulation was 2.6 fold and the KITLG expression down-regulation worked out at 2.73 fold. Further, under “vs untreated HCT-116-CMV-OsTIR1 control”, the “number of genes 2-fold downregulated with p<0.05 after auxin treatment” value is on record as 43. Under “vs untreated RAD21-mAC cells”, the “number of genes 1.75-fold downregulated with p<0.05 after auxin treatment” value was found to be 49.

The values above are taken from patent US20200255828A1, “METHODS AND COMPOSITIONS FOR ALTERING FUNCTION AND STRUCTURE OF CHROMATIN LOOPS AND/OR DOMAINS” (THE BROAD INSTITUTE, INC., priority 2017, published 2020).
